Results published in patent publication US12371453B2, “Polypeptide having antibacterial activity, composition for preventing or treating sepsis comprising same, and antibacterial composition” (priority 2019, dated 2025).
pKd: −log10 of the molar value. In brackets after ≈: the same amount, converted by molar mass. Read-outs that look alike come from different tables or passages of the source. Square brackets hold non-standard residues; d marks the D form. Ends that are not written are not given here. Peptide text beside a SMILES is read from it.

Key:
[1] = Calcein dye leakage from liposome mimicking gram-positive bacterial cell membrane; type: biochemical; conditions: calcein-encapsulated liposome
Description: To study the action mechanisms for FPT2-NH2, FPT3-NH2, allD FPT2-NH2, and allD FP13-NH2 peptides, the disruption ability of the peptides against a liposome mimicking a bacterial cell membrane was measured.

[2] = LPS binding affinity by Isothermal Titration Calorimeter (ITC); set-up: species or system E. coli K1; conditions: for LPS binding affinity (in words): compared with FP1 (wild type, WT); for pKd: peptide binding to LPS, read-out: Kd (calculated by ITC)
Description: FPT (ADK 44-54) is denoted by wild type (WT), and peptides in which a point mutation occurred at various sites in WT were manufactured (FP3, FP5, FP6, and FP9). To increase the interaction with LPS in a residue sequence of FP3, peptides were designed based on FP3- and LPS-binding models (FP12-NH2 and FP13-NH2), and peptides were designed by additionally introducing a non-natural amino acid and an amino acid isomer (allomeric D-type amino acid) (allD FP12-NH2, allD FP13-NH2, allD FP-13-9a, allD FP-13-9w, allD FP-13-9k, and allD FP13-NH2 (AcOH)). In addition, an N-terminus PEGylated peptide (PEG-alld FP13-NH2 (AcOH)) was additionally designed, synthesized, and provided by ANYGEN, Co. Ltd. The binding affinity between each of the provided peptides and lipopolysaccharide (LPS) was confirmed through measuring the binding affinity (Kd) using Isothermal Titration Calorimeter (ITC).
Specifically, a method of analyzing binding affinity (Kd) between a peptide and LPS is as follows.
Measurement was carried out using a Malvern MicroCal PEAQ-ITC cell instrument, and the following pretreatment was carried out to confirm interaction with LPS. The amount and morphology of a sample cell are 300 μL and coin-shaped, fixed-in-place, respectively; a syringe rotation rate was 1,200 rpm; and a temperature was 30° C., 35° C. or 25° C.
Before the experiment, LPS and the peptide were previously diluted with PBS, thereby preparing 2 mM LPS and 0.2 mM peptide. 300 μL of the peptide was added into cells in the ITC instrument, which had been washed, and 40 μL of LPS was put into a syringe. After measurement conditions for ITC (temperature, number of injections) were set, the syringe was inserted into the cell, and ITC measurement was started. When the measurement was completed, analysis is performed, and the Kd values of LPS and the peptide were calculated.

[3] = test system: E. coli; type: cell-based
[4] = test system: CR-Klebsiella pneumoniae
Description: (§1) The antibacterial activity was evaluated according to an antibacterial activity test method for measuring the minimum inhibitory concentration 50 (MIC50; the minimal concentration that kills 50% of bacteria).
(§2) More specifically, 100 μL of a medium was dispensed into each well of a 96-well plate, and in the first column, an antibiotic and a peptide in 200 μL of the medium were dispensed. 1/2 serial dilution was performed from columns 1 to 11 and five types of antibiotic-resistant bacteria (ESBL-resistant E. coli, carbapenem-resistant A. baumannii, carbapenem-resistant Klebsiella pneumoniae, carbapenem-resistant Pseudomonas aeruginosa, colistin-resistant Acinetobactor baumannii), which had been previously cultured, were diluted (OD600 nm value in dilution: approximately 0.0025) and dispensed into each well. The plate was incubated in a 37° C. incubator for 4 hours, and measured at OD600 nm.

[5] = test system: ESBL (E. coli)
Description: as §1, §2

[6] = test system: Colistin resistant AB (Acinetobactor baumannii)
Description: as §1, §2

[7] = Calcein dye leakage from liposome mimicking human red blood cell membrane; type: biochemical; conditions: calcein-encapsulated liposome
Description: (§3) To study an action mechanism for FP12-NH2, FP13-NH2, allD FP12-NH2, and allD FP13-NH2 peptides, the disruption ability of the peptides against liposomes mimicking a bacterial cell membrane and a red blood cell membrane was measured.
(§4) EYPG is an abbreviation for egg yolk L-α-phosphatidyl-DL-glycerol, and EYPC is an abbreviation for egg yolk 1,2-diacyl-sn-glycero-3-phosphocholine. CH is an abbreviation for cholesterol. After dissolving the phospholipids composed according to the content of each component in chloroform, the chloroform was removed using a rotary evaporator, and lyophilization was performed overnight. Afterward, the dried lipid film was dissolved in a Tris-buffer solution, and calcein […]. After repeated freezing and thawing, the calcein-encapsulated liposome was manufactured using an extruder. Subsequently, after an excitation wavelength of a spectrofluorimeter (Shimadzu RF 5301 PC spectrofluorimeter, Japan) was set to 490 nm, and an emission wavelength was set to 520 nm, the peptide was administered to the liposome to measure relative dye leakage, provided that a 100% dye leakage was expressed as fluorescence intensity when 0.010% Triton-X100 was added.
(§5) The upper graphs of FIG. 3 show the % dye leakage for an EYPC/EYPG (7:3, w/w) liposome mimicking bacterial cells, encapsulating a fluorescent dye, calcein, by a peptide according to a peptide concentration. […] The lower graphs of FIG. 3 show the % dye leakage for an EYPC/CH (10:1, w/w) liposome, which is […] mimicking a human red blood, encapsulating a fluorescent dye, calcein, by a peptide according to a peptide concentration.

[8] = test system: Carbapenem resistant (CR)-Acinetobactor baumannii; assay: organism not typed
Description: as §1, §2

[9] = test system: S. aureus
[10] = Calcein dye leakage from liposome mimicking gram-negative bacterial cell membrane; type: biochemical; conditions: calcein-encapsulated liposome
Description: as §3, §4, §5

[11] = test system: trypsin, protease K, and chymotrypsin; conditions: read out by antibacterial activity
[12] = test system: A. baumannii; type: cell-based
[13] = test system: Salmonela enteritidis (ATCC 13076); assay: microbe, parasite or virus in culture; conditions: Salmonella enterica
Description: (§6) To compare the antibacterial activity between the four commercially available antibiotics (ampicillin, gentamicin, levofloxacin and imipenem) and the allD FP13-NH2 (AcOH) peptide, an antibacterial activity test was performed to measure the minimum inhibitory concentrations (MIC50 and MIC80) for gram-negative and gram-positive standard strains (Escherichia coli DH5α, Escherichia coli K1, Acinetobacter baumannii, Pseudomonas aeruginosa, Salmonella enteritidis, Salmonella typhimurium, and Klebsiella pneumoniae).
(§7) More specifically, 100 μL of a medium was dispensed into each well of a 96-well plate, and in the first column, an antibiotic and a peptide in 200 μL of the medium were dispensed. 1/2 serial dilution was performed from columns 1 to 11, and gram-negative and gram-positive bacteria which had been previously cultured were diluted (OD600 nm value in dilution: approximately 0.0025) and dispensed into each well. The plate was incubated in a 37° C. incubator for 4 hours, and measured at OD600 nm.

[14] = test system: Escherichia coli DH5α (ATCC PTA-4750); assay: microbe, parasite or virus in culture; conditions: Escherichia coli, 4 h
Description: as §6, §7

[15] = test system: Klebiella pneumoniae (ATCC 13883); assay: microbe, parasite or virus in culture; conditions: Klebsiella pneumoniae
Description: as §6, §7

[16] = test system: Acinetobacter baumannii (ATCC 19606); assay: microbe, parasite or virus in culture; conditions: Acinetobacter baumannii
Description: as §6, §7

[17] = test system: Salmonela typhimurium (ATCC 53648); assay: microbe, parasite or virus in culture; conditions: Salmonella enterica
Description: as §6, §7

[18] = test system: Escherichia coli K1; assay: microbe, parasite or virus in culture; conditions: Escherichia coli
Description: as §6, §7

[19] = test system: Pseudomanas aeruginosa PAO1 (ATCC 47085D-5); assay: microbe, parasite or virus in culture; conditions: Pseudomonas aeruginosa
Description: as §6, §7

Molecule | dye leakage, EYPG/EYPC (6:4, w/w) liposome mimicking gram-positive bacterial cell membrane [1] | LPS binding affinity (in words) [2] | pKd [2] | MIC50, CR-Klebsiella pneumoniae ([4]; CR-) [µg/mL] | MIC50, ESBL (E. coli) ([5]; ESBL) [µg/mL] | MIC50, Colistin resistant AB [6] [µg/mL] | dye leakage, PC/CH liposome mimicking a red blood cell membrane [7] | MIC50, Carbapenem resistant (CR)-Acinetobactor baumannii [8] [µg/mL] | dye leakage, PC/PG (7:3, w/w) liposome mimicking a bacteria cell membrane [10] | other results
CC(C)C[C@@H](NC(=O)[C@H](N)CCCNC(=N)N)C(=O)N[C@H](CCCNC(=N)N)C(=O)N[C@@H](C(=O)N[C@H](CCCCN)C(=O)N[C@H](CC(C)C)C(=O)N[C@H](CCCNC(=N)N)C(=O)N[C@H](CCCNC(=N)N)C(=O)N[C@H](Cc1ccc(O)cc1)C(=O)N[C@H](CC(C)C)C(=O)N[C@H](CCCNC(=N)N)C(N)=O)C(C)C [allD FP12-NH2] (H-[dR][dL][dR][dV][dK][dL][dR][dR][dY][dL][dR]-NH2; N-terminus assumed) | high dye leakage | strong LPS binding affinity | 4.58 | <32 | <0.5 | <16 | almost no dye leakage | <4 | high dye leakage | MIC50 [3]: 2 µM (≈ 3.06 µg/mL); MIC90 [3]: 4 µM (≈ 6.11 µg/mL); MIC50 [9]: 4 µM (≈ 6.11 µg/mL); MIC90 [9]: 8 µM (≈ 12.2 µg/mL); resistance to the proteolytic enzyme [11]: much improved resistance; MIC50 [12]: 4 µM (≈ 6.11 µg/mL); MIC90 [12]: 8 µM (≈ 12.2 µg/mL)
C[C@@H](O)[C@H]1C(=O)N2C(C(=O)O)=C(SCCN=CN)C[C@H]12 [Imipenem, imipenem] |  |  |  |  |  |  |  |  |  | MIC50, CR-Klebsiella pneumoniae ([4]; CR-K. pneumoniae): No effect; MIC50, ESBL (E. coli) ([5]; ESBL E. coli): No effect; MIC50, Colistin resistant AB ([6]; colistin resistant A. baumannii): No effect; MIC50, Carbapenem resistant (CR)-Acinetobactor baumannii ([8]; CR-A. baumannii): No effect; MIC ([13]; read-out: MIC (μg/ml) 50%): < 4 µg/mL; MIC ([13]; read-out: MIC (μg/ml) 80%): < 8 µg/mL; MIC ([14]; read-out: MIC (μg/ml) 50%): < 4 µg/mL; MIC ([14]; read-out: MIC (μg/ml) 80%): < 8 µg/mL; MIC ([15]; ATCC13883, read-out: MIC (μg/ml) 50%): < 2 µg/mL; MIC ([15]; ATCC13883, read-out: MIC (μg/ml) 80%): < 8 µg/mL; MIC ([16]; ATCC19606, read-out: MIC (μg/ml) 50%): < 8 µg/mL; MIC ([16]; ATCC19606, read-out: MIC (μg/ml) 80%): < 15 µg/mL; MIC ([17]; read-out: MIC (μg/ml) 50%): < 4 µg/mL; MIC ([17]; read-out: MIC (μg/ml) 80%): < 8 µg/mL; MIC ([18]; K1, read-out: MIC (μg/ml) 50%): < 0.5 µg/mL; MIC ([18]; K1, read-out: MIC (μg/ml) 80%): < 1 µg/mL; MIC ([19]; PAO1, read-out: MIC (μg/ml) 50%): < 32 µg/mL; MIC ([19]; PAO1, read-out: MIC (μg/ml) 80%): < 64 µg/mL
RLRVKLRRYLR-NH2 [FP12-NH2] | high dye leakage | strong LPS binding affinity | 6.62 | <8 | <0.5 | <16 | almost no dye leakage | <4 | high dye leakage | 
KLRVKLRRYLR-NH2 [FP13-NH2] | high dye leakage | strong LPS binding affinity | 3.93 | <16 | <1 | <32 | almost no dye leakage | <8 | high dye leakage | 
